In brackets after ≈: the same amount, converted by molar mass.

Series [1] can be described thus: Hemolytic activity in rabbit RBC incubated for 1 hr by microplate reader analysis. As to conditions: rabbit red blood cells (erythrocytes). The series is classed as toxicity, cell-based, Oryctolagus cuniculus, Erythrocyte.
Series [2] concerns Staphylococcus aureus. Briefly: Antibacterial activity against Staphylococcus aureus ATCC 29213 assessed as inhibition of bacterial growth incubated for 24 hrs by microbroth dilution method. The series is classed as functional.
The subject of series [3] is Staphylococcus aureus. Briefly: Antibacterial activity against methicillin resistant Staphylococcus aureus N315 assessed as inhibition of bacterial growth incubated for 24 hrs by microbroth dilution method. The series is classed as functional. For orientation: Broth dilution looks for growth in wells or tubes with falling amounts of substance.
Series [4] concerns Staphylococcus aureus. Briefly: Antibacterial activity against methicillin resistant Staphylococcus aureus NCTC10442 assessed as inhibition of bacterial growth incubated for 24 hrs by microbroth dilution method. The series is classed as functional.
Series [5] concerns Staphylococcus aureus. Briefly: Induction of resistant development in Staphylococcus aureus ATCC 29213 assessed as fold increase in MIC at 0.5 MIC after 12 passages by resistant development assay. The class given is functional.
Another series relates to Bacillus subtilis. Briefly: Antibacterial activity against Bacillus subtilis CMCC63501 assessed as inhibition of bacterial growth incubated for 24 hrs by microbroth dilution method. The series is classed as functional.
For series [6], the system named is Staphylococcus epidermidis. Briefly: Antibacterial activity against Staphylococcus epidermidis ATCC 12228 assessed as inhibition of bacterial growth incubated for 24 hrs by microbroth dilution method. The class given is functional.
The subject of series [7] is Staphylococcus epidermidis. Briefly: Antibacterial activity against Staphylococcus epidermidis CMCC26069 assessed as inhibition of bacterial growth incubated for 24 hrs by microbroth dilution method. The series is classed as functional.
The subject of another series is Enterococcus faecalis. Briefly: Antibacterial activity against Enterococcus faecalis ATCC 29212 assessed as inhibition of bacterial growth incubated for 24 hrs by microbroth dilution method. The series is classed as functional.
The subject of series [8] is Staphylococcus aureus. Briefly: Antibacterial activity against Staphylococcus aureus ATCC 15981 assessed as inhibition of bacterial growth incubated for 24 hrs by microbroth dilution method. The series is classed as functional.

In [1], `CN1CCN(CCCCOc2ccc(C(C)(C)CC(C)(C)C)cc2Sc2cc(C(C)(C)CC(C)(C)C)ccc2OCCCCN2CCN(C)CC2)CC1` returned a concentration for 50% haemolysis (HC50) at 1 h above 200 µg/mL. Also, the MIC with Staphylococcus aureus [2], with Staphylococcus aureus [3] and with Staphylococcus aureus [4] was 12.5 µg/mL (≈ 16.6 µM) each time.
The molecule `CCOC(=O)COc1ccc(C(C)(C)CC(C)(C)C)cc1Sc1cc(C(C)(C)CC(C)(C)C)ccc1OCC(=O)OCC` had an HC50 at 1 h in series [1] above 200 µg/mL. In addition, the MIC in the series with Staphylococcus aureus [2], in the series on Staphylococcus aureus [3] and in the series with Staphylococcus aureus [4] was above 50 µg/mL in each case.
`CCCCN(CCCC)CCCCOc1ccc(C(C)(C)CC(C)(C)C)cc1Sc1cc(C(C)(C)CC(C)(C)C)ccc1OCCCCN(CCCC)CCCC` gave an HC50 at 1 h in series [1] above 200 µg/mL. In addition, the MIC in the series on Staphylococcus aureus [2], in the series with Staphylococcus aureus [3] and in the series with Staphylococcus aureus [4] was above 50 µg/mL throughout.
With `CCn1cc(C(=O)O)c(=O)c2cc(F)c(N3CCNCC3)cc21`, the fold change (FC) in the series on Staphylococcus aureus [5] stood at 32.
In turn, `Cc1cc(Sc2cc(C)cc(C(C)(C)C)c2OCC(=O)N[C@@H](CCCNC(=N)N)C(N)=O)c(OCC(=O)N[C@@H](CCCNC(=N)N)C(N)=O)c(C(C)(C)C)c1` yielded an HC50 at 1 h in series [1] above 200 µg/mL. Further, the minimal inhibitory concentration (MIC) with Staphylococcus aureus [2] is 25 µg/mL (≈ 31.8 µM); with Staphylococcus aureus [3], 12.5 µg/mL (≈ 15.9 µM); in the series on Staphylococcus aureus [4], 12.5 µg/mL (≈ 15.9 µM).
`CCCCNCCCCOc1ccc(C(C)(C)CC(C)(C)C)cc1Sc1cc(C(C)(C)CC(C)(C)C)ccc1OCCCCNCCCC` registered an HC50 at 1 h in series [1] of 41.5 µg/mL. Moreover, the minimal inhibitory concentration (MIC) in the series with Staphylococcus aureus [2], in the series on Staphylococcus aureus [3] and in the series with Staphylococcus aureus [4] was 6.25 µg/mL (≈ 8.96 µM) in each case.
In series [1], `CC(C)(C)CC(C)(C)c1ccc(O)c(Sc2cc(C(C)(C)CC(C)(C)C)ccc2O)c1` gave an HC50 at 1 h above 200 µg/mL. Further, the MIC in the series with Staphylococcus aureus [2], with Staphylococcus aureus [3] and with Staphylococcus aureus [4] was above 50 µg/mL throughout.
In the case of `COC(=O)[C@H](CCCNC(=N)N)NC(=O)[C@H](CCCNC(=N)N)NC(=O)COc1ccc(C(C)(C)CC(C)(C)C)cc1Sc1cc(C(C)(C)CC(C)(C)C)ccc1OCC(=O)N[C@@H](CCCNC(=N)N)C(=O)N[C@@H](CCCNC(=N)N)C(=O)OC`, in [1], the HC50 at 1 h was above 200 µg/mL. In addition, the minimum inhibitory concentration (MIC) in the series on Staphylococcus aureus [2] was found to be 1.56 µg/mL (≈ 1.29 µM); in the series with Staphylococcus aureus [3] it was 1.56 µg/mL (≈ 1.29 µM); in the series on Staphylococcus aureus [4], 3.12 µg/mL (≈ 2.58 µM); in the series with Bacillus subtilis it was 1.56 µg/mL (≈ 1.29 µM); in [6] it was 1.56 µg/mL (≈ 1.29 µM); in [7], 1.56 µg/mL (≈ 1.29 µM). For the same molecule, the MIC with Enterococcus faecalis and in the series on Staphylococcus aureus [8] was 3.12 µg/mL (≈ 2.58 µM) each time.
Consider `COC(=O)[C@H](CCCNC(=N)N)NC(=O)COc1c(Sc2cc(C)cc(C(C)(C)C)c2OCC(=O)N[C@@H](CCCNC(=N)N)C(=O)OC)cc(C)cc1C(C)(C)C`, for which the concentration for 50% haemolysis (HC50) at 1 h in [1] was above 200 µg/mL. Besides, the minimal inhibitory concentration (MIC) with Staphylococcus aureus [2] was found to be 3.12 µg/mL (≈ 3.83 µM); in the series with Staphylococcus aureus [3], 1.56 µg/mL (≈ 1.91 µM); in the series on Staphylococcus aureus [4], 3.12 µg/mL (≈ 3.83 µM); in the series on Bacillus subtilis it was 1.56 µg/mL (≈ 1.91 µM); in series [6], 0.78 µg/mL (≈ 0.957 µM); in series [7] it was 0.78 µg/mL (≈ 0.957 µM). The minimal inhibitory concentration (MIC) in the series with Enterococcus faecalis amounted to 12.5 µg/mL (≈ 15.3 µM); in the series on Staphylococcus aureus [8], 1.56 µg/mL (≈ 1.91 µM).
In series [1], `COC(=O)[C@H](CCCNC(=N)N)NC(=O)COc1ccc(Cl)cc1Sc1cc(Cl)ccc1OCC(=O)N[C@@H](CCCNC(=N)N)C(=O)OC` returned an HC50 at 1 h above 200 µg/mL. The minimum inhibitory concentration (MIC) in the series with Staphylococcus aureus [2] is 25 µg/mL (≈ 33.6 µM); in the series on Staphylococcus aureus [3], 12.5 µg/mL (≈ 16.8 µM); in the series on Staphylococcus aureus [4], 12.5 µg/mL (≈ 16.8 µM).
The molecule `Oc1ccc(Cl)cc1Sc1cc(Cl)ccc1O` [FENTICLOR] showed a concentration for 50% haemolysis (HC50) at 1 h in series [1] above 200 µg/mL. For the same molecule, the MIC in the series on Staphylococcus aureus [2], in the series with Staphylococcus aureus [3] and in the series with Staphylococcus aureus [4] was above 50 µg/mL throughout.
Turning to `CCNCCCCOc1ccc(C(C)(C)CC(C)(C)C)cc1Sc1cc(C(C)(C)CC(C)(C)C)ccc1OCCCCNCC`, in series [1], the 50% haemolytic concentration (HC50) at 1 h came out at 30.8 µg/mL. For the same molecule, the MIC in the series on Staphylococcus aureus [2], in the series with Staphylococcus aureus [3] and in the series on Staphylococcus aureus [4] was 1.56 µg/mL (≈ 2.43 µM) each time.
For the molecule `COC(=O)[C@H](CCCNC(=N)N)NC(=O)COc1ccc(C(C)(C)CC(C)(C)C)cc1Sc1cc(C(C)(C)CC(C)(C)C)ccc1O`, the 50% haemolytic concentration (HC50) at 1 h in [1] came to 130 µg/mL. For the same molecule, the MIC with Staphylococcus aureus [2] amounted to 12.5 µg/mL (≈ 18.6 µM); in the series with Staphylococcus aureus [3], 3.12 µg/mL (≈ 4.66 µM); in the series with Staphylococcus aureus [4], 1.56 µg/mL (≈ 2.33 µM).
On to `CCCN(CCC)CCCCOc1ccc(C(C)(C)CC(C)(C)C)cc1Sc1cc(C(C)(C)CC(C)(C)C)ccc1OCCCCN(CCC)CCC`, for which the 50% haemolytic concentration (HC50) at 1 h in series [1] was above 200 µg/mL. Besides, the minimal inhibitory concentration (MIC) with Staphylococcus aureus [2], in the series on Staphylococcus aureus [3] and in the series on Staphylococcus aureus [4] was above 50 µg/mL throughout.
In series [1], `CC(C)(C)CC(C)(C)c1ccc(OCCCCN2CCCCC2)c(Sc2cc(C(C)(C)CC(C)(C)C)ccc2OCCCCN2CCCCC2)c1` came in with a concentration for 50% haemolysis (HC50) at 1 h above 200 µg/mL. Besides, the MIC was determined as 12.5 µg/mL (≈ 17.3 µM) in the series on Staphylococcus aureus [2], 12.5 µg/mL (≈ 17.3 µM) in the series on Staphylococcus aureus [3] and 25 µg/mL (≈ 34.7 µM) with Staphylococcus aureus [4].

Usually HC50 stands for the concentration that lyses half of the red blood cells. A lower HC50 goes with more damage to red cells. What is called MIC is the lowest concentration found to suppress growth.

The values are drawn from ChEMBL document CHEMBL5108078, “Design and Synthesis of Phenyl Sulfide-Based Cationic Amphiphiles as Membrane-Targeting Antimicrobial Agents against Gram-Positive Pathogens” (J Med Chem, 2022).
